“Also recorded” adds a separate entry of the source.
Legend:
BTBR mice [1] = assay: Social approach test (SAT), social novelty preference (novel mouse vs familiar mouse); type: in vivo; settings: for preference to novel mouse (NM) over familiar mouse (FM) vs VEH-treated BTBR mice: p < 0.001
Procedure: (§1) All the mice were randomly divided into nine groups of 5–7 mice each. The mice were injected intraperitonially once daily for 21 days with different doses of ST2223 (2.5, 5, and 10 mg/kg, i.p.), ARP 1 mg/kg or vehicle (1% DMSO in 0.9% normal saline). Group I, B6 mice were injected with vehicle served as control. Group II, BTBR mice were treated with vehicle. Groups III–V, BTBR mice received i.p. injections of different doses of ST2223 (2.5, 5, and 10 mg/kg, i.p.), respectively. Group VI, BTBR mice were injected with ARP (1 mg/kg, i.p.). For abrogation studies, Group VII, BTBR mice were treated with ST2223 (5 mg/kg, i.p.) along with RAM (10 mg/kg, i.p.). Group VIII, B6 mice were co-injected with vehicle and RAM (10 mg/kg, i.p). All treatments and vehicle (VEH) were administered 30–45 min before each behavioral test. The doses of these drugs were selected based on previous reports. Behavioral testing was performed between 9:00 am and 3:00 pm in an order randomized by group and in the following sequence: social approach test (SAT) and open field locomotor test (OFL). The chronic treatment started one week before the behavioral test and was continued for a total of 21 days as described above (Figure 7). Following behavioral tests, i.e., on day 21 of systemic treatment, five of the animals were sacrificed. The animals were deeply anesthetized with pentobarbital (40 mg/kg, i.p., body weight). To wash out the blood, cardiac perfusion was carried out using 0.01 M phosphate-buffered saline (PBS) at pH 7.4. The brains were quickly removed and placed on an ice plate, where the cerebellum, hippocampus, prefrontal cortex, and striatum were excised from the brain and snap-frozen in liquid nitrogen for later LC-MS/MS analysis.
The social approach test (SAT) was performed using an automated three-chamber device (EthoVision® Software, Noldus, The Netherlands) as previously described. The transparent polycarbonate chamber is rectangular and is composed of three interconnected partitions (homemade), which are separated by two sliding doors. […] For 10 min, the test mouse was allowed to explore all three chambers and cups, and the time spent interacting with NO and NM (sniffing) was automatically recorded by EthoVision® Software. […] The study mouse is allowed to explore the three chambers for 10 min, and the time spent for interacting with both mice was automatically recorded, to assess social novelty preference. […] To allow the direct comparison of social behavior between the treated groups, the sociability index (SI) and social novelty index (SNI) were calculated with the following formula, as previously described: SI=(Time exploring NM−Time exploring NO)/(Time exploring NM+Time exploring NO) SNI=(Time exploring NM−Time exploring FM)/(Time exploring NM+Time exploring FM)

[2] = tested on: dopamine levels in BTBR mice brain; assay: Dopamine levels by LC-MS/MS in brain regions; type: in vivo; parameters: key to Dopamine level: ↔: No significant alterations; ↑: significant increase; ↑↑: additional significant increase vs. ST-2223-treated mice; ↓: significant decrease; settings: for Dopamine level: ST-2223 5 mg/kg i.p. chronic, vs VEH-treated BTBR mice
Procedure: as §1
(§2) Perfusion was done on anesthetized animals using 1X PBS as described previously. Different regions of the brain were snap frozen. Frozen tissues were then weighed and homogenized in a 10-fold volume of acetonitrile. For 50mg of tissue, 500 µL of acetonitrile and Internal standard mix were added and homogenized. Homogenates were centrifuged at 15,000 rcf for 15 min at 4 °C. Tissue levels of dopamine, acetylcholine, histamine, and their metabolites were assessed using LC-MS/MS. LC-MS/MS analysis was conducted utilizing Waters BEH C18 COLUMN (2.1 × 100 mm, 1.7 µm) using Waters Acquity UPLC Binary Solvent Manager and FTN Sample Manager. The system was run in gradient mode with mobile phase A consisting of LC-MS GRADE WATER + 0.1% FORMIC ACID and mobile phase B consisting of 100% ACETONITRILE. Mobile phase was duly filtered through 0.2 µm filter and degassed ultrasonically for 15 min prior to use. Separations were performed at room temperature with 0.3 mL/min flow rate gradient starting with 90% of A for up to 0.5 min. Then, % of A was decreased gradually until it reached 20% at 2.5 min after which at 3 min %A was brought back to the initial condition and left for equilibration for 2 more minutes before the next injection (total 5 min run time). The injection volume was kept at 1 µL. Mass spectrometric detection was performed in multiple reaction monitoring (MRM) mode with positive electrospray ionization (ESI+) on Xevo TQS mass spectrometer (Waters, Milford, MA) equipped with an electrospray ionization (ESI) source and triple quadrupole mass analyzer. MRM transitions and instrument parameters were set by tuning the instrument by infusing each analyte. MRM transitions taken for quantification were 146.2 > 87.1 for Acetylcholine, 112.2 > 95.2 for Histamine, 154.1 > 137.2 for Dopamine, 150.2 > 91.3 for Acetylcholine D4, and […] > 99.3 for Histamine D4. Capillary Voltage, Source Offset, Source Temperature, De solvation Temperature, Cone Gas Flow, De solvation Gas Flow, Collision Gas Flow, Nebulizer Gas Flow were set as 3.0 (kV), 60.0 (V), 150 (°C), 550 (°C), 150 (L/Hr), 1000 (L/Hr), 0.13 (mL/min), and 7 (Bar), correspondingly. […]

B6 control mice = tested on: B6 control mice; parameters: method as in PMID 33669336; settings: cited from earlier work
[3] = tested on: histamine levels in BTBR mice brain; assay: Histamine levels by LC-MS/MS in brain regions; type: in vivo; parameters: key to Histamine level: ↔: No significant alterations; ↑: significant increase; ↑↑: additional significant increase vs. ST-2223-treated mice; ↓: significant decrease; settings: ST-2223 5 mg/kg i.p. chronic, vs VEH-treated BTBR mice
Procedure: as §1, §2

BTBR mice [4] = assay: Social approach test (SAT), sociability (novel mouse vs novel object); type: in vivo
Procedure: as §1
The social approach test (SAT) was performed using an automated three-chamber device (EthoVision® Software, Noldus, The Netherlands) as previously described. The transparent polycarbonate chamber is rectangular and is composed of three interconnected partitions (homemade), which are separated by two sliding doors. In brief, after 10 min of habituation, the study mouse was placed in the central chamber with the doors opened, and the mouse was given the choice to interact with either an empty plastic cup located in one side chamber, referred to as a novel object (NO), or a similar plastic cup with an unfamiliar mouse inside it located in the opposite chamber, referred to as a novel mouse (NM), which was matched in age, sex, and strain with test mouse. To avoid innate side preferences, the plastic cup for NO and NM were randomly placed in either chamber and the placement was changed between studies and between mice. For 10 min, the test mouse was allowed to explore all three chambers and cups, and the time spent interacting with NO and NM (sniffing) was automatically recorded by EthoVision® Software. Immediately after this session, a novel mouse is kept in the empty cup and is referred to as novel mouse (NM), and the mouse in the other cup from the earlier session is referred to as familiar mouse (FM). The study mouse is allowed to explore the three chambers for 10 min, and the time spent for interacting with both mice was automatically recorded, to assess social novelty preference. Eight groups of 7 mice/group were used for the SAT. To allow the direct comparison of social behavior between the treated groups, the sociability index (SI) and social novelty index (SNI) were calculated with the following formula, as previously described: SI=(Time exploring NM−Time exploring NO)/(Time exploring NM+Time exploring NO) SNI=(Time exploring NM−Time exploring FM)/(Time exploring NM+Time exploring FM)

In the case of `COc1ccccc1N1CCN(CCCCNC(=O)c2ccc3cc(OCCCN4CCCCC4)ccc3c2)CC1` [ST-2223, N-(4-(4-(2-methoxyphenyl)piperazin-1-yl)butyl)-6-(3-(piperidin-1-yl)propoxy)-2-naphthamide], the “social novelty index (SNI)” value (BTBR mice [1]; ST-2223 5 mg/kg i.p. chronic, no significant difference to control B6) is reported as “significantly improved social novelty performance”, the “preference to novel mouse (NM) over familiar mouse (FM) vs VEH-treated BTBR mice” value (BTBR mice [1]; ST-2223 5 mg/kg i.p. chronic) is reported as “enhanced preference to stranger NM over FM” and the “preference to novel mouse (NM) over familiar mouse (FM) vs VEH-treated BTBR mice” value (BTBR mice [1]; ST-2223 10 mg/kg i.p. chronic) is reported as “enhanced preference to stranger NM over FM”. The Dopamine level ([2]; Cerebellum) was “↓ ^b”, the Dopamine level ([2]; Hippocampus) was “↔” and the Dopamine level ([2]; Prefrontal cortex) was “↑ ^b”. The Dopamine level ([2]; Striatum) was “↑ ^b”, the “dopamine levels” value ([2]; prefrontal cortex and striatum, ST-2223 5 mg/kg chronic, p < 0.05) was “significantly increased the dopamine levels in both regions” and the “behavioral alterations in B6 control mice” value (B6 control mice) was “no behavioral alterations”. The Histamine level ([3]; Cerebellum) was “↑ ^b”, the Histamine level ([3]; Hippocampus) was “↔” and the Histamine level ([3]; Prefrontal cortex) was “↔”. The “levels of histamine in brain regions” value ([3]; 5 mg/kg) was “significantly increased the levels of histamine in cerebellum and striatum; also recorded: without significant enhancement of brain histamine in hippocampal tissues”, the Histamine level ([3]; Striatum) was “↑ ^b” and the “time spent with novel mouse (NM) vs novel object (NO)” value (from here on “time spent … vs novel object (NO)”) (BTBR mice [4]; ST-2223 2.5 mg/kg i.p. chronic, p = 0.48) was “unsuccessful to exert remarked improvement”. For the same compound, the “exploring time spent with NM vs VEH-treated BTBR mice” value (BTBR mice [4]; ST-2223 2.5 mg/kg i.p. chronic, p > 0.05) was “not a significant level”, the “exploring time spent with NM vs VEH-treated BTBR mice” value (BTBR mice [4]; ST-2223 5 mg/kg i.p. chronic, p < 0.001) was “significantly improved exploring time spent with NM” and the “time spent … vs novel object (NO)” value (BTBR mice [4]; ST-2223 5 mg/kg i.p. chronic, p < 0.01) was “significantly enhanced time spent with the NM”. The “sociability index (SI) vs VEH-treated BTBR mice” value (BTBR mice [4]; ST-2223 5 mg/kg i.p. chronic, p < 0.05) was “significant improvement in sociability” and the “time spent … vs novel object (NO)” value (BTBR mice [4]; ST-2223 10 mg/kg i.p. chronic, p = 0.53) was “unsuccessful to exert remarked improvement”.
